Measurements: patent US8193160B2 (priority 2006, dated 2012)
Values after ≈ are worked out from the molar mass of the structure shown.

Key:
[1] = system: Magnaporthe vegetative mycelia, wild type Guy11; assay: microbe, parasite or virus in culture; format: cell-based, Magnaporthe grisea; details: for MIC: Pyricularia oryzae, read-out: Minimum Inhibitory Concentration (MIC), Guy11
wild type conidia = format: cell-based, Magnaporthe grisea
wild type appressoria = format: cell-based, Magnaporthe grisea
abc3Δ conidia = format: cell-based, Magnaporthe grisea
ABC3 promoter = format: cell-based, Magnaporthe grisea

Molecule: CCCCNC(=O)n1c(NC(=O)OC)nc2ccccc21 [Benomyl]
- MIC [1]: 2 µg/mL (≈ 6.89 µM)

Molecule: C[C@H]1CCC/C=C/[C@@H]2C[C@H](O)C[C@H]2[C@H](O)/C=C/C(=O)O1 [Brefeldin A]
- Minimum Inhibitory Concentration (MIC), Guy11 [1]: 40 µg/mL

Molecule: OC(Cn1cncn1)(Cn1cncn1)c1ccc(F)cc1F [Fluconazole]
- MIC [1]: 2500 µg/mL (≈ 8160 µM)

Molecule: CCC(C)n1ncn(-c2ccc(N3CCN(c4ccc(OCC5COC(Cn6cncn6)(c6ccc(Cl)cc6Cl)O5)cc4)CC3)cc2)c1=O (stereo not drawn) [Itraconazole]
- MIC [1]: 2000 µg/mL (≈ 2830 µM)

Molecule: [Cl-].[K+] [KCl, potassium chloride]
- reversal of defects associated with Valinomycin action (wild type conidia): failed to reverse

Molecule: CCC(=C/[C@H](C)C/C=C/C(C)=C/[C@@H](C)C(=O)[C@@H](C)[C@H](O)[C@@H](C)C/C(C)=C/C(=O)O)/C=C/[C@@H]1OC(=O)C=C[C@@H]1C [Leptomycin B]
- Minimum Inhibitory Concentration (MIC), Guy11 [1]: 0.0075 µg/mL

Molecule: CC1=CC(=O)c2ccccc2C1=O [Menadione]
- effect on host penetration compared to treatment with peroxide (wild type appressoria): slightly reduced effect

Molecule: CC(C)[C@@H]1NC(=O)[C@H](C)OC(=O)[C@@H](C(C)C)NC(=O)[C@@H](C(C)C)OC(=O)[C@H](C(C)C)NC(=O)[C@H](C)OC(=O)[C@@H](C(C)C)NC(=O)[C@@H](C(C)C)OC(=O)[C@H](C(C)C)NC(=O)[C@H](C)OC(=O)[C@@H](C(C)C)NC(=O)[C@@H](C(C)C)OC1=O [Valinomycin]
- MIC [1]: 20 µg/mL (≈ 18 µM)
- frequency of appressoria formation (wild type conidia): 61±2%
- germ tube growth (wild type conidia): could withstand elevated concentration
- effect on conidia (germ tube emergence) (abc3Δ conidia): complete blockage of conidial germ tube emergence
- germ tube growth (abc3Δ conidia): inhibited

Molecule: COc1ccc(CCN(C)CCCC(C#N)(c2ccc(OC)c(OC)c2)C(C)C)cc1OC (stereo not drawn) [Verapamil]
- decrease in penetration peg formation (wild type appressoria): ≤ 74%
- effect on germ tube emergence or growth (wild type appressoria): without affecting

Molecule: OO [hydrogen peroxide]
- appressoria able to breach the host surface (wild type appressoria): 36±2.8%
- peroxide level that blocked germ tube emergence (wild type appressoria): exceeding 5 mM
- ABC3 promoter driven destabilized-GFP fluorescence versus untreated control (ABC3 promoter): four fold higher
- growth under oxidative stress (wild type Guy11 strain): unaffected

Molecule: C[n+]1ccc(-c2cc[n+](C)cc2)cc1 [paraquat]
- effect on host penetration compared to treatment with peroxide (wild type appressoria): slightly reduced effect

Molecule: Actinomycin D
- Minimum Inhibitory Concentration (MIC), Guy11 [1]: 15 µg/mL

Molecule: Gramicidin D
- Minimum Inhibitory Concentration (MIC), Guy11 [1]: 180 µg/mL
